This series in a line: Cytotoxicity activity against human HepG2 cells assessed by CellTiter-Glo luminescent cell viability assay. Format: toxicity, cell-based. More on the design: assay stage confirmatory assay, source tissue liver. The following applies: HepG2 cells, read-out: IC50 relative. On the technique in general: In ATP-based viability assays light output follows the ATP content of the culture.

Calls of active or inactive are those of the source. No rule for the calls is given here.

For `O=c1[nH]ccc2c(Br)cccc12`, the CC50 is 8.3 µM (inactive).

`CN1CCN(S(=O)(=O)c2cccc(C(=O)Nc3nc(-c4ccccc4)cs3)c2)CC1`: the CC50 was 12.5 µM (active).

Consider `CCN1CCS/C1=C\C=C\C1=[N+](CC)CCS1`, for which the CC50 was 6.3 µM (active).

Take `O=C(Nc1nnc(-c2ccccc2)o1)c1cccc(S(=O)(=O)N2CCOCC2)c1`: the CC50 is 8.9 µM (active).

As for `COc1ccc(NC(=O)c2cc(-c3ccccc3O)no2)cc1`, the CC50 was 12.3 µM (active).

With `O=C1C=C(N(CCO)Cc2ccccc2)c2ccccc2C1=O`, the CC50 was 4.4 µM (active).

For `CN(C)/C=C/C=C/C=C/C1=[N+](C)c2ccccc2C1(C)C`, the CC50 was 10.3 µM (active).

As for `CC(C)c1ccc(S(=O)(=O)/N=C2/C=C(Sc3nc[nH]n3)C(=O)c3ccccc32)cc1`, the CC50 was 5.8 µM (active).

In the case of `O=S(=O)(Nc1cc(Sc2nc[nH]n2)c(O)c2ccccc12)c1ccc(Cl)cc1`, the CC50 was 5.7 µM (active).

Turning to `COc1ccc(-n2ccc(C(=O)Nc3cc(Cl)c(=O)n(C)c3)n2)cc1`, the CC50 was 7.7 µM (active).

Consider `CC(C)N1CCC(NC(=O)CN2CCCN(Cc3ccccc3)c3ccccc32)CC1`, for which the CC50 is 12.4 µM (active).

Turning to `COC[C@H](C)Nc1cccc(N(C)C(C)C)c1`, the CC50 was 8.6 µM (active).

`Cc1ccc(S(=O)(=O)/N=C2\C=C(Sc3nc[nH]n3)C(=O)c3ccccc32)cc1`: the CC50 was 4.8 µM (active).

In the case of `Cc1cc(OCC(=O)Nc2nc(-c3ccccn3)cs2)no1`, the CC50 is 8.8 µM (active).

For `CNc1nc(N2CCCO[C@@H](CN)C2)nc2ccccc12`, the CC50 was 6.4 µM (active).

As to `CC(C)c1cnc(NC(=O)N2CC3(CN(C)C(=O)O3)C2)s1`, the CC50 was 12.7 µM (inactive).

Turning to `CCN(C)C[C@H]1CCN(Cc2ccc(OCc3ccccc3F)nc2)C1`, the CC50 was 6.7 µM (active).

As for `Cc1ccc(NC(=O)Cc2ccc(-n3cccc3)cc2)nc1`, the CC50 is 1.6 µM (active).

With `Cc1ccc(-c2nc(C#N)c(S(=O)(=O)N(C)CCO)o2)cc1`, the CC50 was 7.3 µM (active).

As to `F[C@H](c1nc(-c2ccc(OCc3cccnc3)cc2)no1)C1CNC1`, the CC50 is 8.2 µM (active).

Consider `O=C(Nc1cccc2cccnc12)c1cn2ccccc2n1`, for which the CC50 is < 0.1 µM (active).

For `CCOc1cc(F)ccc1NC(=O)c1csc(-c2cnn(C)c2)n1`, the CC50 is 0.4 µM (active).

For the compound `CC(C)c1ccc(NC(=O)c2ccc(N3CCOCC3)nc2)cc1`, the CC50 is 10.5 µM (inactive).

As to `CN(C)c1ccc(Cl)cc1NC(=O)c1cn(CCC2CCCCN2)nn1` (stereo not given), the CC50 is 6.8 µM (active).

Consider `C#CC(=O)NCCNc1nc(C)nc(C)c1Br`, for which the CC50 was 0.8 µM (active).

Consider `CCc1cccc2c(C3CCNCC3)c[nH]c12`, for which the CC50 is 11.4 µM (active).

For the compound `CCNc1cc2[o+]c3cc(NCC)c(C)cc3c(-c3ccccc3C(=O)OCC)c2cc1C`, the CC50 is 1 µM (active).

For the compound `CCN(CC)Cc1ccccc1CNC(=O)N(CC)C[C@H]1COc2ccccc2O1`, the CC50 is 10.8 µM (active).

Consider `O=C(Nc1ncccc1O)c1ccc(OCc2cn3ccccc3n2)cc1`, for which the CC50 was 6.7 µM (active).

Take `COc1ccc(OC)c(C(=O)Nc2nc3ccccc3[nH]2)c1`: the CC50 was 4.7 µM (active).

`COc1ccc2oc(C(=O)Nc3ncccc3O)c(C)c2c1`: the CC50 is 47.2 µM (inactive).

As to `CCCCOc1ccc(C(=O)N2CCN(S(=O)(=O)c3ccc4c(c3)OCCCO4)CC2)cc1`, the CC50 is 3.2 µM (inactive).

With `COc1cc(C(=O)Nn2cnc3ccccc32)cc(Cl)c1OCC(N)=O`, the CC50 is 8.3 µM (inactive).

Consider `c1ccc(COc2ccc3c(c2)CCNCC3)cc1`, for which the CC50 was 10.8 µM (active).

Turning to `Cc1occc1C(=O)Nc1ccc(N2CCCC2)cn1`, the CC50 is 8.8 µM (active).

Take `Cc1cc(N)n(S(=O)(=O)c2oc(-c3ccccc3)nc2C#N)n1`: the CC50 was 7.6 µM (active).

With `Cc1ccccc1-c1nc(C#N)c(NCC(C)N2CCN(C)CC2)o1` (stereo not given), the CC50 was 10.8 µM (active).

As for `COc1ccc2nc(NC(=O)CN3C(=O)c4ccccc4S3(=O)=O)sc2c1`, the CC50 was 14.8 µM (inactive).

For `CCC[C@]1(C)NC(=O)N(Cc2cc(-c3ccccc3)on2)C1=O`, the CC50 is 2.4 µM (active).

Regarding `N#Cc1cc(NC[C@H](O)c2ccco2)nc2ccc(Cl)cc12`, the CC50 is 1.3 µM (active).

For `Fc1ccc2[nH]c(CCNc3ncc(Cl)cn3)nc2c1`, the CC50 is 6.7 µM (active).

Turning to `Cc1ccc(NC(=O)c2cc3ccccc3c(=O)[nH]2)cc1`, the CC50 was 50 µM (inactive).

As to `O=C1COc2cc(C(=O)Nc3nc(-c4ccccn4)cs3)ccc2N1`, the CC50 is 1.5 µM (active).

`CCC1(CC)CCN(c2ncnc3[nH]ccc23)CC1`: the CC50 is 8.3 µM (active).

Take `CC(C)(C)n1c(NC(=O)c2ccncc2)nc2ccccc21`: the CC50 is 15.2 µM (active).

As for `CC1(C)[C@H]2CC=C(CCNC(=O)C3CCN(C(=O)c4ccccn4)CC3)[C@@H]1C2`, the CC50 was 4.5 µM (inactive).

In the case of `O=C(Cc1cnn(-c2ccccc2)c1)N1CCN(S(=O)(=O)c2ccc3c(c2)OCCCO3)CC1`, the CC50 is 8.6 µM (active).

Take `Cc1cc(=O)n2nc(Sc3ncc4ccccn34)sc2n1`: the CC50 was 12.1 µM (active).

For `O=C(NCc1ccc(-n2ccnc2)nc1)[C@@H]1CC(c2ccccc2)=NO1`, the CC50 was 6.3 µM (active).

`CC(C)c1ccc(CN2CCN(C(=O)CN(C)C(=O)c3ccco3)CC2)cc1`: the CC50 was 4.4 µM (active).

Take `COc1ccc(CCN2Cc3ccc(N)cc3C2)cc1`: the CC50 was 20.2 µM (inactive).

For the compound `CCc1ccc(NC(=O)c2nc(S(C)(=O)=O)ncc2Br)cc1`, the CC50 is 3 µM (active).

Take `COCC1CCN(Cc2ccc(C(C)C)cc(O)c2=O)CC1`: the CC50 is 11.8 µM (active).

As for `COc1ccc(Cl)cc1CNCC1CCN(C[C@H](C)O)CC1`, the CC50 is 10.2 µM (active).

As to `Oc1ccc2[nH]ncc2c1Br`, the CC50 was 7.1 µM (active).

Take `CC(C)c1cnc(NC(=O)N2CC[C@H](Nc3ccc4nccn4n3)C2)s1`: the CC50 was 3.2 µM (active).

Turning to `Cc1cc(NC(=O)N[C@H]2CCN(CC3CCCC3)C2)cc(N2CCN(C)CC2)c1`, the CC50 was 9.3 µM (active).

As to `O=C(Nc1cnn(-c2ccccn2)c1)c1ccc(O)c(Cl)c1`, the CC50 is 50 µM (inactive).

Consider `CC(=O)c1ccc(S(=O)(=O)Nc2cccc3cccnc23)cc1`, for which the CC50 was 3.5 µM (active).

Consider `CN([C@H]1CCN(c2ccccc2F)C1=O)S(=O)(=O)c1cccc2cnccc12`, for which the CC50 was 4.3 µM (active).

On to `CC(C)c1ccc(CNCCN2CCCCC2CO)cc1` (stereo not given), for which the CC50 is 4.3 µM (active).

Take `CCN(CC)c1ccc(/C=C/C2=[N+](C)c3ccccc3C2(C)C)cc1`: the CC50 was 1.2 µM (active).

In the case of `Cc1nn(-c2cccc(Cl)c2)nc1C(=O)NC1CCN(C)CC1`, the CC50 was 9.4 µM (active).

For `COc1c(Br)cc(Cl)cc1S(=O)(=O)N1CCC[C@H](N)C1`, the CC50 is 16.1 µM (inactive).

For `O=C(Nc1cccnc1)N1CCN(c2ccc(S(=O)(=O)N3CCOCC3)cn2)CC1`, the CC50 was 2.5 µM (active).

For `Cc1cccc(OC[C@@H](O)CN2CCC(C(=O)N3CCc4ccccc43)CC2)c1`, the CC50 was 11.3 µM (active).

Consider `O=C(CN1C(=O)COc2ccc(Cl)cc21)N1CCC(c2c[nH]c3ncccc23)CC1`, for which the CC50 is 8.8 µM (active).

On to `O=C(Cn1ncc(Cl)c(Cl)c1=O)N1CCC[C@H]1c1ccc2c(c1)OCCCO2`, for which the CC50 is 7.1 µM (active).

As to `CCC1CN(Cc2ccccc2OCc2cccc(OC)c2)CCN1C` (stereo not given), the CC50 is 17.8 µM (inactive).

`O=C(NCCc1ccco1)c1cc2ccccc2cc1O`: the CC50 was 8.5 µM (active).

Take `CCN(CC)c1cc(C)nc(Nc2ccc(NC(=O)C(C)C)cc2)n1`: the CC50 was 6.8 µM (active).

Take `CCn1c(SCc2cc(=O)n3ccsc3n2)nc2sc(C)c(C)c2c1=O`: the CC50 is 20.2 µM (inactive).

Take `Cc1cc(N2CCN([C@@H](C)C(=O)Nc3ccc(C#N)cc3)CC2)nc(C(C)C)n1`: the CC50 is 11.2 µM (active).

For the compound `C[C@@H](NC1CCN(c2ccc(F)c(F)c2)CC1)[C@@H](O)c1ccc(O)cc1`, the CC50 is 14.6 µM (active).

In the case of `Cc1cc(C)cc(OC[C@@H](O)CN2CCC(C(=O)Nc3ccccc3)CC2)c1`, the CC50 was 12.1 µM (active).

On to `N[C@@H](Cc1ccccc1)C(=O)N1C/C(=C\c2ccc(Cl)c(Cl)c2)C(=O)/C(=C/c2ccc(Cl)c(Cl)c2)C1`, for which the CC50 was 7.9 µM (active).

Regarding `CCN(C(=O)c1ccc(-n2ccnc2)nc1)S(=O)(=O)c1ccc(C)cc1`, the CC50 was 11.7 µM (inactive).

`COc1ncccc1-c1csc(-c2ccoc2)n1`: the CC50 is 1 µM (active).

As to `O=S(=O)(Nc1cccc2cccnc12)c1ccccc1F`, the CC50 is 2.6 µM (active).

As to `Clc1cccc(N2CCN(C[C@H]3CCC4(CNC4)O3)CC2)c1`, the CC50 is 7 µM (active).

`O=C(Nc1nc(-c2ccc(F)cc2)n[nH]1)c1ccco1`: the CC50 is 3.4 µM (active).

Take `O=C(Nc1cccc2cccnc12)c1cccc2cn[nH]c12`: the CC50 is 50 µM (inactive).

Take `O=C(Nc1ccc(Cn2cnc3ccccc32)cc1)c1ccc(=O)[nH]n1`: the CC50 is 9.7 µM (inactive).

As to `CC[n+]1c(/C=C2/C=CN(C)c3ccccc32)ccc2ccccc21`, the CC50 is 2.3 µM (active).

Consider `CCOc1ccc(S(=O)(=O)N(C)c2ccccc2)cc1`, for which the CC50 is 7.5 µM (inactive).

Take `O=C(Nc1ccccc1O)c1cccc(NC(=O)c2cccs2)c1`: the CC50 was 7.1 µM (active).

Regarding `Cc1cccc2nc(C(=O)Nc3ccc(S(=O)(=O)Nc4nccs4)cc3)cn12`, the CC50 is 1.4 µM (inactive).

For the compound `COc1ccccc1OCC(=O)Nc1nc(-c2ccccn2)cs1`, the CC50 is 2.7 µM (active).

In the case of `CN[C@H]1CCCN(C(=O)c2ccc(CN)cc2)C1`, the CC50 was 14.3 µM (inactive).

For the compound `Cn1ncnc2c(=O)n(C)c(=O)nc1-2`, the CC50 is 0.2 µM (active).

For the origin of these results see ChEMBL document CHEMBL5303711, “ECBD screening data for assay EOS300108” (2023).
